Test results as given in US11452718B2 (AVALYN PHARMA INC., priority 2012, dated 2022).
Several values for one entry are separate records, joined by “and”; a condition that tells them apart may be missing. Identical values can stand only once. Like-named read-outs stand apart in the source and are kept apart here. Marks after values point to notes of the source that are not given here.

What was measured:
[1] = Co-solvent and surfactant effects on pirfenidone solubility; type: physicochemical
Procedure: Each sample was agitated at ambient temperature overnight. The samples were visually inspected and appearance recorded. Samples were centrifuged to sediment any un-dissolved material and the supernatant withdrawn via syringe through a 0.22 μm PVDF filter. […] The remaining filtered sample was split into three equal volumes in glass vials and placed at 25° C./60RH, 40° C./75RH and refrigeration. Samples are wrapped in aluminum foil to reduce light exposure. After the first night of incubation, samples are briefly visually inspected for any signs of discoloration or precipitate formation.

[2] = Osmolality determination and nebulization for taste testing, throat irritation and cough response of selected formulations; conditions: for Cough Response? / Throat Irritation?: nebulized
Description: Selected formulations were subjected to osmolality determination and nebulization for taste testing and throat irritation and or cough response.

CYP1A2 = molecular target: T1, CYP1A2 (Homo sapiens, UniProt P05177); conditions: hepatic microsomes; cited from earlier work
T1 construct: In vitro metabolism studies with hepatic microsomes; from tissue; host or cells: hepatic microsomes
T1 sequence (P05177 whole entry): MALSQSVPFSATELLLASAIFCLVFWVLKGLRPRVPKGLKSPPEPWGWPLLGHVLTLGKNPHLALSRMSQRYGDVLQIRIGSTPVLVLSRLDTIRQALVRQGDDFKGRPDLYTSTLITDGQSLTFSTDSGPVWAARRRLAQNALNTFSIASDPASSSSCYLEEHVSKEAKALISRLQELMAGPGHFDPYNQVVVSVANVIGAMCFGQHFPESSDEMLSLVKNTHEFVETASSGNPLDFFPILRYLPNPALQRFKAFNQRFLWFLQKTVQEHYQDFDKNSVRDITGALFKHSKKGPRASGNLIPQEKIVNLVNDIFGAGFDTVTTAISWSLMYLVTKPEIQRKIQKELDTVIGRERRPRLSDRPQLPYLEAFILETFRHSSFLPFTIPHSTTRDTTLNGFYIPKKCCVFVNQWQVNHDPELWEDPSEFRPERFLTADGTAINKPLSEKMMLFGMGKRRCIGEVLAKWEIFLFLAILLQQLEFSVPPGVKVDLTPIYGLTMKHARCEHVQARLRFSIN

[3] = Modeled human inhaled aerosol pirfenidone pharmacokinetics (FIG. 2, FIG. 5, Table 28)
Procedure: Aerosol deliver parameters for the FIGS. 2 and 5 models were based on high-efficiency, mesh-based nebulizer characterization (Table 12). […] Respirable delivered dose (RDD) calculated by the product of fine particle fraction (FPF, %<5 microns) and inhaled mass. […] This later dose was modeled to be delivered in 1 minute.

[4] = Pharmacokinetics and lung-tissue distribution after oral gavage or intratracheal aerosol; type: in vivo, Sprague-Dawley rats; conditions: for Lung AUC: for time >1 μg/g
Procedure: Solutions were vortexed until all crystals dissolved. […] Plasma samples were taken at pre-dose, 0.08, 0.16, 0.25, 0.5, 0.75, 1.0, 1.5, 2, 4, and 6 hours post dosing. For lung tissue samples, eight additional rats were also dosed 70 mg/kg by the oral route. Lungs were taken at pre-dose 0.08, 0.5, 2, and 4 hours post dosing. Materials were extracted and pirfenidone quantitated as μg/mL plasma and μg/gram lung tissue. […]

[5] = test system: CYP2C9, 2C19, 2D6, and 2E1; conditions: hepatic microsomes; cited from earlier work
[6] = 85% saturation pirfenidone formulations exposed to several temperatures (re-crystallization); type: physicochemical; conditions: overnight
Description: However, in all cases pirfenidone eventually re-crystallized. This re-crystallization was not inhibited by pre-filtration of the sample.

[7] = cited from earlier work
[8] = Rubino et al., cited from earlier work
[9] = cited from earlier work; for oral Cmax / Cmax: IPF patients; for Cmax: read-out: oral Cmax
[10] = in vivo; cited from earlier work
[11] = Buffer and pH effects: pirfenidone solubility in citrate and phosphate buffers; type: physicochemical; conditions: Citrate buffer 5 mM, pH 6; ambient temperature overnight
Procedure: The sample was agitated at ambient temperature overnight. The sample was visually inspected, appearance recorded, centrifuged to sediment any un-dissolved material, and the supernatant withdrawn via syringe through a 0.22 μm PVDF filter. […] The remaining filtered sample was split into three equal volumes in glass vials and placed at 25° C./60RH, 40° C./75RH and refrigeration. Samples were wrapped in aluminum foil to reduce light exposure. After the first night of incubation, samples were briefly visually inspected for any signs of discoloration or precipitate formation.

[12] = Intravenous push of pirfenidone to a mouse: plasma and lung levels; type: in vivo; conditions: 40 mg/kg intravenous dose; blood about 40% of wet lung weight
Procedure: Exemplary Lung Tissue Delivery Assumptions: • 1. The total wet weight of the adult human lung is about 685 to 1,050 grams (for calculations, conservatively about […]); • 2. The adult human lung blood volume is about 450 mL; • 3. The tissue weight of the adult human lung is conservatively 1,050 grams wet weight minus 450 mL blood weight (assuming density of 1.0), equals 600 grams; • 4. […] The inhaled route of administration is dependent upon a respirable delivered dose (RDD). The RDD is the fraction of drug inhaled in aerosol particles less than 5 microns in diameter; • 7. RDD of typical dry powder, liquid nebulization or meter-dose inhalation devices ranges from 10% to 70%. Higher and lower efficiency devices with RDDs greater than 70% and less than 10% also exist; • 8. […] From the above observations and calculations, the lower limit of efficacy in lung tissue is 8 mcg/gram; and • 10.

[13] = pirfenidone 27.2 mg/mL, 4% EtOH, 8% PG, 88% phosphate buffer (5 mM), pH 6.6
[14] = pirfenidone 34.7 mg/mL, 6% EtOH, 12% PG, 82% phosphate buffer (5 mM), pH 7.0
[15] = pirfenidone 43.7 mg/mL, 8% EtOH, 16% PG, 0 mM sodium saccharin, 76% phosphate buffer (5 mM), pH 7.0
[16] = pirfenidone 43.7 mg/mL, 8% EtOH, 16% PG, 0.3 mM sodium saccharin, 76% phosphate buffer (5 mM), pH 7.0
[17] = bolus aerosol intratracheal 1 mg/kg
[18] = bolus aerosol intratracheal 5 mg/kg

## Cc1ccc(=O)n(-c2ccccc2)c1 [pirfenidone, 5-methyl-1-phenyl-2-(1H)-pyridone]
[1]; 4% EtOH, 0.1% CPB, 95.9% water, pH 4.9
  Pirfenidone Saturation Solubility: 20.2 mg/mL
[1]; ethanol (EtOH) or propylene glycol (PG)
  effect of co-solvent on saturation solubility: increase the saturation solubility
[1]; ethanol and propylene glycol together
  effect of co-solvents on saturation solubility: additive effect in increasing the saturation solubility
[2]; [13]
  Cough Response?: No
  Throat Irritation?: No
[2]; [14]
  Cough Response?: No
  Throat Irritation?: No
[2]; [15]
  Cough Response?: No
  Throat Irritation?: No
  Osmolality: 3672 mOsmo/Kg
[2]; [16]
  Cough Response?: No
  Throat Irritation?: No
  Osmolality: 3672 mOsmo/Kg
[2]; pirfenidone 27.2 mg/mL, 4% EtOH, 8% PG, 88% phosphate buffer (5 mM), pH 6.6, calculated
  Osmolality: ~1830* mOsmo/Kg
[2]; pirfenidone 34.7 mg/mL, 6% EtOH, 12% PG, 82% phosphate buffer (5 mM), pH 7.0, calculated
  Osmolality: ~2750* mOsmo/Kg
CYP1A2
  share of pirfenidone metabolised via the enzyme: approximately 48%
[3]; 2.5 mg RDD inhaled over 1 minute, human model
  lung tissue Cmax compared to the 801 mg oral pirfenidone dose: equivalent
[3]; 29 mg RDD, 3 minute tidal-inhaled nebulized dose
  possible achieved human lung tissue Cmax: 43.2 mcg/gram lung tissue
[3]; 120 mg RDD inhaled over 5 minutes, human model
  plasma AUC compared to the 801 mg oral pirfenidone dose: equivalent
[4]; [17]
  Lung TOE: time of exposure over 1 μg/g lung tissue: 5 min
  Lung AUC: 5.2 mg·h/kg
[4]; bolus aerosol intratracheal 1 mg/kg, immediate post-dose calculated from the direct-lung delivered dose
  Lung Cmax: 101 µg/g
[4]; [18]
  Lung TOE: time of exposure over 1 μg/g lung tissue: 84 min
  Lung AUC: 25.4 mg·h/kg
[4]; bolus aerosol intratracheal 5 mg/kg, immediate post-dose calculated from the direct-lung delivered dose
  Lung Cmax: 508 µg/g
[4]; oral 70 mg/kg
  Lung AUC: 4.3 mg·h/kg
  Lung Cmax: 3.6 µg/g
  Lung TOE: time of exposure over 1 μg/g lung tissue: 89 min
[5]
  contribution of each isoenzyme to metabolism: less than 13%
[6]; 4° C., pirfenidone 23.0 mg/mL (85% saturation), 4% EtOH, 8% PG, 88% phosphate buffer (5 mM), pH 6.6
  Recrystallization upon storage: No
[6]; 4° C., pirfenidone 29.5 mg/mL, 6% EtOH, 12% PG, 82% phosphate buffer (5 mM), pH 7.0
  Recrystallization upon storage: No
[6]; 4° C., pirfenidone […], 8% EtOH, 16% PG, 76% phosphate buffer (5 mM), pH 7.0
  Recrystallization upon storage: No
[6]; 15° C., pirfenidone 23.0 mg/mL (85% saturation), 4% EtOH, 8% PG, 88% phosphate buffer (5 mM), pH 6.6
  Recrystallization upon storage: No
[6]; 15° C., pirfenidone 29.5 mg/mL, 6% EtOH, 12% PG, 82% phosphate buffer (5 mM), pH 7.0
  Recrystallization upon storage: No
[6]; 15° C., pirfenidone […], 8% EtOH, 16% PG, 76% phosphate buffer (5 mM), pH 7.0
  Recrystallization upon storage: No
[6]; 25° C., pirfenidone 23.0 mg/mL (85% saturation), 4% EtOH, 8% PG, 88% phosphate buffer (5 mM), pH 6.6
  Recrystallization upon storage: No
[6]; 25° C., pirfenidone 27.2 mg/mL (saturation solubility), 4% EtOH, 8% PG, 88% phosphate buffer (5 mM), pH 6.6
  Recrystallization upon storage: Yes
[6]; 25° C., pirfenidone 29.5 mg/mL, 6% EtOH, 12% PG, 82% phosphate buffer (5 mM), pH 7.0
  Recrystallization upon storage: No
[6]; 25° C., pirfenidone 34.7 mg/mL, 6% EtOH, 12% PG, 82% phosphate buffer (5 mM), pH 7.0
  Recrystallization upon storage: Yes
[6]; 25° C., pirfenidone 43.7 mg/mL, 8% EtOH, 16% PG, 76% phosphate buffer (5 mM), pH 7.0
  Recrystallization upon storage: Yes
[6]; 25° C., pirfenidone […], 8% EtOH, 16% PG, 76% phosphate buffer (5 mM), pH 7.0
  Recrystallization upon storage: No
[6]; −20° C., pirfenidone 23.0 mg/mL (85% saturation), 4% EtOH, 8% PG, 88% phosphate buffer (5 mM), pH 6.6, crystals re-dissolved at 25° C. without agitation
  Recrystallization upon storage: Yes^f
[6]; −20° C., pirfenidone 29.5 mg/mL, 6% EtOH, 12% PG, 82% phosphate buffer (5 mM), pH 7.0, crystals re-dissolved at 25° C. without agitation
  Recrystallization upon storage: Yes^f
[6]; −20° C., pirfenidone […], 8% EtOH, 16% PG, 76% phosphate buffer (5 mM), pH 7.0, crystals re-dissolved at 25° C. without agitation
  Recrystallization upon storage: Yes^f
[7]; 40 mg/kg intravenous dose
  Lung Cmax: 30 mcg/gram wet tissue
  plasma Cmax: about 55 mcg/mL
[7]; intravenous
  wet lung half-life, longer than the plasma half-life: about 45%
[8]; lung tissue (derived solely from plasma T1/2), aerosol 47 mg RDD, 2009 fasted-state
  T1/2 beta: 2.5 h
[8]; lung tissue (derived solely from plasma T1/2), oral 801 mg, fasted-state, 2009
  T1/2 beta: 2.5 h
[8]; lung tissue (derived solely from plasma T1/2), oral 801 mg, fed-state, 2009
  T1/2 beta: 2.4 h
[8]; plasma, aerosol 47 mg RDD, 2009 fasted-state
  T1/2 beta: 2.5 h
[8]; plasma, oral 801 mg, fasted-state, 2009
  T1/2 beta: 2.5 h
[8]; plasma, oral 801 mg, fed-state, 2009
  T1/2 beta: 2.4 h
[9]; 801 mg oral pirfenidone
  duration of plasma level at or greater than 5 mcg/mL: 4 h
[9]; fasting-state
  oral Cmax: about 15.7 mcg/mL
  Cmax: ~84 µM
[9]; recommended fed-state
  oral Cmax: about 7.9 mcg/mL
  Cmax: ~42 µM
[9]; oral, fed-state
  change in Tmax by food: seven-fold increase
  reduction in Cmax by food: ~50%
  reduction in overall exposure (AUC) by food: 10-15% and ~20%
[10]
  administered dose excreted in the urine: about 80%
[11]
  Pirfenidone Saturation Solubility: 18.4 mg/mL
[12]
  lung tissue level after subtracting blood contribution: about 8 mcg/g
